Experimental data reported in the NIST ThermoML archive (doi:10.1016/j.jct.2016.06.034).
± gives the expanded uncertainty stated by the source.

Assay: mn = molality of the nth substance listed, in mol/kg
Conditions: for electrical conductivity / speed of sound / mass density: 84.5 kPa, Liquid; for electrical conductivity: Alternating current cell with electrodes; for speed of sound: Frequency=3 MHz, Sing-around technique in a fixed-path interferometer; for mass density: Vibrating tube method; for surface tension liquid-gas: platinum plate method

CCCCCCCCCCn1cc[n+](C)c1.[Br-] [1-decyl-3-methylimidazolium bromide] + O
Conditions | electrical conductivity [S/m] | mass density [kg/m3] | speed of sound [m/s] | surface tension liquid-gas [mN/m]
293.15 K, m1 = 0.00228 | 0.0203 ± 0.0039 | – | – | –
293.15 K, m1 = 0.00309 | 0.0273 ± 0.0038 | – | – | –
293.15 K, m1 = 0.00382 | 0.0335 ± 0.0036 | – | – | –
293.15 K, m1 = 0.00535 | 0.0458 ± 0.0035 | – | – | –
293.15 K, m1 = 0.00813 | 0.0678 ± 0.0035 | – | – | –
293.15 K, m1 = 0.0095 | – | 998.589 ± 0.11 | 1484.6 ± 1.2 | –
293.15 K, m1 = 0.01113 | 0.0909 ± 0.0035 | – | – | –
293.15 K, m1 = 0.01379 | – | 998.766 ± 0.11 | 1485.5 ± 1.2 | –
293.15 K, m1 = 0.01397 | 0.112 ± 0.0036 | – | – | –
293.15 K, m1 = 0.01652 | – | 998.876 ± 0.11 | 1486.1 ± 1.2 | –
293.15 K, m1 = 0.01667 | 0.132 ± 0.0036 | – | – | –
293.15 K, m1 = 0.01935 | 0.152 ± 0.0036 | – | – | –
293.15 K, m1 = 0.02179 | – | 999.09 ± 0.11 | 1487.2 ± 1.2 | –
293.15 K, m1 = 0.02193 | 0.17 ± 0.0037 | – | – | –
293.15 K, m1 = 0.02449 | 0.187 ± 0.0037 | – | – | –
293.15 K, m1 = 0.02615 | – | 999.268 ± 0.11 | 1488 ± 1.2 | –
293.15 K, m1 = 0.02695 | 0.204 ± 0.0038 | – | – | –
293.15 K, m1 = 0.02918 | 0.219 ± 0.0039 | – | – | –
293.15 K, m1 = 0.03106 | – | 999.467 ± 0.11 | 1489 ± 1.2 | –
293.15 K, m1 = 0.0311 | 0.231 ± 0.004 | – | – | –
293.15 K, m1 = 0.03299 | 0.243 ± 0.0041 | – | – | –
293.15 K, m1 = 0.03338 | – | 999.559 ± 0.11 | 1489.4 ± 1.2 | –
293.15 K, m1 = 0.03499 | 0.256 ± 0.0041 | – | – | –
293.15 K, m1 = 0.03691 | 0.269 ± 0.0042 | – | – | –
293.15 K, m1 = 0.03819 | – | 999.755 ± 0.11 | 1490.3 ± 1.2 | –
293.15 K, m1 = 0.03912 | 0.282 ± 0.0043 | – | – | –
293.15 K, m1 = 0.0406 | – | 999.853 ± 0.11 | 1490.5 ± 1.2 | –
293.15 K, m1 = 0.04083 | 0.292 ± 0.0043 | – | – | –
293.15 K, m1 = 0.0425 | 0.3 ± 0.0041 | – | – | –
293.15 K, m1 = 0.04332 | – | 999.954 ± 0.11 | 1490.9 ± 1.2 | –
293.15 K, m1 = 0.04369 | 0.305 ± 0.004 | – | – | –
293.15 K, m1 = 0.04545 | 0.311 ± 0.004 | – | – | –
293.15 K, m1 = 0.04614 | – | 1000.06 ± 0.11 | 1491.1 ± 1.2 | –
293.15 K, m1 = 0.04751 | 0.317 ± 0.004 | – | – | –
293.15 K, m1 = 0.04952 | 0.323 ± 0.0041 | – | – | –
293.15 K, m1 = 0.05149 | 0.327 ± 0.004 | – | – | –
293.15 K, m1 = 0.05344 | 0.332 ± 0.0041 | – | – | –
293.15 K, m1 = 0.05515 | – | 1000.37 ± 0.11 | 1491.4 ± 1.2 | –
293.15 K, m1 = 0.05532 | 0.336 ± 0.0042 | – | – | –
293.15 K, m1 = 0.058 | 0.342 ± 0.0042 | – | – | –
293.15 K, m1 = 0.05963 | 0.345 ± 0.0044 | – | – | –
293.15 K, m1 = 0.06396 | – | 1000.67 ± 0.11 | 1491.6 ± 1.2 | –
293.15 K, m1 = 0.07815 | – | 1001.15 ± 0.11 | 1491.8 ± 1.2 | –
293.15 K, m1 = 0.122 | – | 1002.6 ± 0.11 | 1492.4 ± 1.2 | –
293.15 K, m1 = 0.1726 | – | 1004.24 ± 0.11 | 1493 ± 1.2 | –
293.15 K, m1 = 0.2247 | – | 1005.89 ± 0.11 | 1493.8 ± 1.2 | –
293.15 K, m1 = 0.2539 | – | 1006.79 ± 0.11 | 1494.1 ± 1.2 | –
298.15 K, m1 = 1e-05 | 0.000165 | – | – | –
298.15 K, m1 = 3e-05 | 0.00031 | – | – | –
298.15 K, m1 = 4e-05 | 0.000454 | – | – | –
298.15 K, m1 = 5e-05 | 0.000592 | – | – | –
298.15 K, m1 = 7e-05 | 0.000739 | – | – | –
298.15 K, m1 = 0.0001 | 0.00103 | – | – | –
298.15 K, m1 = 0.00012 | 0.00132 | – | – | –
298.15 K, m1 = 0.00018 | 0.00193 | – | – | –
298.15 K, m1 = 0.00025 | 0.00268 ± 0.0045 | – | – | –
298.15 K, m1 = 0.0004 | 0.00418 ± 0.0045 | – | – | –
298.15 K, m1 = 0.0006 | 0.00622 ± 0.0044 | – | – | –
298.15 K, m1 = 0.00096 | 0.00987 ± 0.0044 | – | – | –
298.15 K, m1 = 0.00171 | 0.0172 ± 0.0044 | – | – | –
298.15 K, m1 = 0.00264 | 0.0265 ± 0.0043 | – | – | –
298.15 K, m1 = 0.00371 | 0.0368 ± 0.0042 | – | – | –
298.15 K, m1 = 0.00412 | – | – | – | 54.68 ± 0.36
298.15 K, m1 = 0.00504 | 0.0494 ± 0.0043 | – | – | –
298.15 K, m1 = 0.00703 | 0.0685 ± 0.0041 | – | – | –
298.15 K, m1 = 0.00741 | – | – | – | 50.92 ± 0.5
298.15 K, m1 = 0.00984 | 0.0933 ± 0.004 | – | – | –
298.15 K, m1 = 0.01142 | – | – | – | 47.08 ± 0.4
298.15 K, m1 = 0.01267 | 0.117 ± 0.004 | – | – | –
298.15 K, m1 = 0.01525 | 0.139 ± 0.004 | – | – | –
298.15 K, m1 = 0.01559 | – | – | – | 43.86 ± 0.36
298.15 K, m1 = 0.01793 | 0.16 ± 0.004 | – | – | –
298.15 K, m1 = 0.01865 | – | – | – | 42.13 ± 0.34
298.15 K, m1 = 0.02048 | 0.181 ± 0.0041 | – | – | –
298.15 K, m1 = 0.023 | 0.201 ± 0.0042 | – | – | –
298.15 K, m1 = 0.02466 | – | – | – | 39.8 ± 0.24
298.15 K, m1 = 0.02535 | 0.219 ± 0.0043 | – | – | –
298.15 K, m1 = 0.02772 | 0.237 ± 0.0044 | – | – | –
298.15 K, m1 = 0.02893 | – | – | – | 38.51 ± 0.22
298.15 K, m1 = 0.02961 | 0.251 ± 0.0045 | – | – | –
298.15 K, m1 = 0.03171 | 0.267 ± 0.0045 | – | – | –
298.15 K, m1 = 0.03351 | – | – | – | 37.65 ± 0.21
298.15 K, m1 = 0.03974 | – | – | – | 37.31 ± 0.2
298.15 K, m1 = 0.04641 | – | – | – | 37.49 ± 0.21
298.15 K, m1 = 0.05292 | – | – | – | 38.51 ± 0.21
298.15 K, m1 = 0.05743 | – | – | – | 38.59 ± 0.2
298.15 K, m1 = 0.06462 | – | – | – | 38.74 ± 0.2
298.15 K, m1 = 0.0747 | – | – | – | 38.93 ± 0.2
298.15 K, m1 = 0.0901 | – | – | – | 38.82 ± 0.21
298.15 K, m1 = 0.1219 | – | – | – | 38.81 ± 0.21
298.15 K, m1 = 0.1645 | – | – | – | 38.91 ± 0.21
